Results from ChEMBL document CHEMBL4049435, “Development of a Series of Kynurenine 3-Monooxygenase Inhibitors Leading to a Clinical Candidate for the Treatment of Acute Pancreatitis” (J Med Chem, 2017).
Active and inactive are the calls of the source. The calls are words filed in the database; no cut-off is given here.

Columns and labels:
[1] = Clearance in Han-Wistar rat blood at 1 mg/kg, iv by LC-MS/MS analysis; type: ADME, organism-based; settings: whole blood
[2] = Clearance in Beagle dog blood at 1 mg/kg, iv by LC-MS/MS analysis; type: ADME, organism-based, Canis lupus familiaris; settings: whole blood
Plasma [3] = assay: (§1) Unbound fraction in rat plasma at […], iv administered as bolus dose followed by […], iv infusion for 3 hrs; type: ADME, organism-based; settings: in vivo
[4] = Half life in Beagle dog at 1 mg/kg, iv by LC-MS/MS analysis; type: ADME, organism-based, Canis lupus familiaris; settings: in vivo
Plasma [5] = assay: as §1; type: ADME, organism-based; settings: in vivo; remark: listed apart in the source
[6] = Protein binding in Han-Wistar rat plasma at 1 mg/kg, iv by LC-MS/MS analysis; type: ADME, organism-based; settings: read-out: PPB (converted)
[7] = Stability of the compound in presence of light measured after 12 hrs; type: physicochemical; settings: read-out: Stability
Plasma [8] = assay: as §1; type: ADME, organism-based; settings: in vivo; remark: listed apart in the source
[9] = Half life of the compound at pH 6 under oxidative condition; type: physicochemical
[10] = Volume of distribution in Beagle dog at 1 mg/kg, iv by LC-MS/MS analysis; type: ADME, organism-based, Canis lupus familiaris; settings: in vivo
[11] = biological target: Kynurenine 3-monooxygenase (Rattus norvegicus, UniProt O88867); assay: Inhibition of rat KMO expressed in HEK293 cells using kynurenine as substrate measured after 20 hrs by LC-MS/MS analysis; type: cell-based; settings: read-out: Ki(app)
[12] = Volume of distribution at steady state in Han-Wistar rat at 1 mg/kg, iv by LC-MS/MS analysis; type: ADME, organism-based; settings: in vivo, read-out: Vdss
[13] = Half life in Han-Wistar rat at 1 mg/kg, iv by LC-MS/MS analysis; type: ADME, organism-based; settings: in vivo
[14] = Drug uptake in plasma of rat model of cerulean-induced acute pancreatitis at 20 mg/kg, iv administered as bolus dose followed by 2.2 mg/kg/hr, iv infusion for 5 hrs; type: ADME, organism-based
Rattus norvegicus [15] = assay: (§2) Effect on circulating tryptophan levels in rat plasma at […], iv administered as bolus dose followed by […], iv infusion for 3 hrs; type: functional, organism-based
Rattus norvegicus [16] = assay: Increase in anthranilic acid levels in iv dosed rat plasma measured post last dose; type: functional, organism-based
Rattus norvegicus [17] = assay: Organoprotective activity against acute pancreatitis-induced kidney damage in rat assessed as decrease in plasma creatinine levels at 20 mg/kg, iv as bolus dose administered 1 hr post acute pancreatitis induction followed by drug administration at 2.2 mg/kg/hr, iv as infusion over 5 hrs; type: functional, organism-based
Rattus norvegicus [18] = assay: Decrease in 3-hydroxykynurenine level in plasma of rat model of cerulean-induced acute pancreatitis at 20 mg/kg, iv administered as bolus dose followed by 2.2 mg/kg/hr 5 hrs iv infusion; type: functional, organism-based
[19] = biological target: Kynurenine 3-monooxygenase (Homo sapiens, UniProt O15229)
Rattus norvegicus [20] = assay: Protection against multiple organ dysfunction syndrome in acute pancreatitis-induced rat assessed as decrease in stress response plasma glucose levels at 20 mg/kg, iv as bolus dose administered 1 hr post acute pancreatitis induction followed by drug administration at 2.2 mg/kg/hr, iv as infusion over 5 hrs; type: functional, organism-based
Rattus norvegicus [21] = assay: In vivo inhibition of KMO in iv dosed rat assessed as decrease in circulating 3-hydroxykynurenine levels in plasma measured post last dose; type: functional, organism-based
Rattus norvegicus [22] = assay: as §2; type: functional, organism-based; remark: listed apart in the source
Homo sapiens = species on record: Homo sapiens; assay: Inhibition of IDO (unknown origin)
[23] = biological target: T1, Kynurenine--oxoglutarate transaminase 1 (Homo sapiens) (UniProt Q16773); assay: Inhibition of KAT1 (unknown origin)
T1 sequence (whole entry): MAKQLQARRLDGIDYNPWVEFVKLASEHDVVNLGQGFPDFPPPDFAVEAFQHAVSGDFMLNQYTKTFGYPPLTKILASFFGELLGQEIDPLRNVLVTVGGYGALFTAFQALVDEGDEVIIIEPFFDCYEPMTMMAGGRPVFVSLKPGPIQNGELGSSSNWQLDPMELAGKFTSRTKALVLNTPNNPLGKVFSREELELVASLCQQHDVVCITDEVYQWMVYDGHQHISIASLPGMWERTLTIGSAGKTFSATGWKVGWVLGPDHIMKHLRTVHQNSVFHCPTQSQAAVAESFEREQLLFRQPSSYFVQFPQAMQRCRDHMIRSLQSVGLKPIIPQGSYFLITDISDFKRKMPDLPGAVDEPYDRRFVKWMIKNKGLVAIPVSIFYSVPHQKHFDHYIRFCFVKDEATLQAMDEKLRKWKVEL

Rattus norvegicus [24] = assay: Organoprotective activity against acute pancreatitis-induced pancreatic injury in rat assessed as decrease in serum amylase levels at 20 mg/kg, iv as bolus dose administered 1 hr post acute pancreatitis induction followed by drug administration at 2.2 mg/kg/hr, iv as infusion over 5 hrs; type: functional, organism-based
Rattus norvegicus [25] = assay: (§3) In vivo inhibition of KMO in rat assessed as increase in kynurenine levels in plasma at […], iv administered as bolus followed by […], iv infusion for 3 hrs; type: functional, organism-based
Rattus norvegicus [26] = assay: (§4) Organoprotective activity in lung of acute pancreatitis rat model assessed as inflammatory infiltrates at 20 mg/kg, iv as bolus dose administered 1 hr post acute pancreatitis induction followed by drug administration at 2.2 mg/kg/hr, iv as infusion over 5 hrs by haematoxylin/eosin stain based light microscopic analysis; type: functional, organism-based
[27] = biological target: T2, Kynureninase (Homo sapiens) (UniProt Q16719); assay: Inhibition of kynureninase (unknown origin)
T2 sequence (whole entry): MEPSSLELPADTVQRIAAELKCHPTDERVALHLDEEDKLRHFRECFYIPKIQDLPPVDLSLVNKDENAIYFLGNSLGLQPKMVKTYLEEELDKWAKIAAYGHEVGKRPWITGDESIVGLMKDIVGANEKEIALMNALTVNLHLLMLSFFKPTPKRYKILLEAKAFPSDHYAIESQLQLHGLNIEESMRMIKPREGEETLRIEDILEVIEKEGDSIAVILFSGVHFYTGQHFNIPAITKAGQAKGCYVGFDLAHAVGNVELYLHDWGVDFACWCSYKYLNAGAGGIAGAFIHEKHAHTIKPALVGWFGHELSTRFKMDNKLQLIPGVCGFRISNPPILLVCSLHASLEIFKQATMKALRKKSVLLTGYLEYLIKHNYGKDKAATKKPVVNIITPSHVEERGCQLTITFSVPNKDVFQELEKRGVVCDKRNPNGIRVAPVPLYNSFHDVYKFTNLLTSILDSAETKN

Rattus norvegicus [28] = assay: as §3; type: functional, organism-based; remark: listed apart in the source
[29] = biological target: Kynurenine/alpha-aminoadipate aminotransferase, mitochondrial (Homo sapiens) (UniProt Q8N5Z0); assay: Inhibition of KAT2 (unknown origin)
Rattus norvegicus [30] = assay: as §2; type: functional, organism-based; remark: listed apart in the source
Rattus norvegicus [31] = assay: Organoprotective activity in kidney of acute pancreatitis […] assessed as reduction in apoptotic cell count in the outer medullary stripe at 20 mg/kg, iv as bolus dose administered 1 hr post acute pancreatitis induction followed by drug administration at 2.2 mg/kg/hr, iv as infusion over 5 hrs by TUNEL staining analysis; type: functional, organism-based
Rattus norvegicus [32] = assay: Increase in kynurenine level in plasma of rat model of cerulean-induced acute pancreatitis at 20 mg/kg, iv administered as bolus dose followed by 2.2 mg/kg/hr 5 hrs iv infusion; type: functional, organism-based
Rattus norvegicus [33] = assay: Organoprotective activity in lung of acute pancreatitis rat model assessed as decrease in levels of protein leak in bronchoalveolar lavage fluid at 20 mg/kg, iv as bolus dose administered 1 hr post acute pancreatitis induction followed by drug administration at 2.2 mg/kg/hr, iv as infusion over 5 hrs; type: functional, organism-based
Rattus norvegicus [34] = assay: Increase in kynurenic acid levels in iv dosed rat plasma measured post last dose; type: functional, organism-based
Rattus norvegicus [35] = assay: as §4, with “alveolar-epithelial thickening” for “inflammatory infiltrates”; type: functional, organism-based
[36] = biological target: Tryptophan 2,3-dioxygenase (Homo sapiens) (UniProt P48775); assay: Inhibition of TDO (unknown origin)
Rattus norvegicus [37] = assay: as §3; type: functional, organism-based; remark: listed apart in the source

Chain of Kynurenine/alpha-aminoadipate aminotransferase, mitochondrial (Homo sapiens) (Q8N5Z0 30-425 limits assumed): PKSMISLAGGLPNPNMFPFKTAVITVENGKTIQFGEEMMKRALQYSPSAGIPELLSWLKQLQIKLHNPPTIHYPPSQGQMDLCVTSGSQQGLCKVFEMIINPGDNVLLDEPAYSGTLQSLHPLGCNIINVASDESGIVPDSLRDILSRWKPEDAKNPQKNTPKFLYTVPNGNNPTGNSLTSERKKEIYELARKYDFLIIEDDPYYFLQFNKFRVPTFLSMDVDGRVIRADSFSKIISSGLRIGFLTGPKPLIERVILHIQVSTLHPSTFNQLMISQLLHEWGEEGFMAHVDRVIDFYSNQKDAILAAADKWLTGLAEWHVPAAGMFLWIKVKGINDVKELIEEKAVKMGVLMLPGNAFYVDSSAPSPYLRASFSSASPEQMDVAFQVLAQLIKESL
Chain of Kynurenine 3-monooxygenase (Homo sapiens, UniProt O15229) (O15229 whole entry, looked up, the tested form may be a part): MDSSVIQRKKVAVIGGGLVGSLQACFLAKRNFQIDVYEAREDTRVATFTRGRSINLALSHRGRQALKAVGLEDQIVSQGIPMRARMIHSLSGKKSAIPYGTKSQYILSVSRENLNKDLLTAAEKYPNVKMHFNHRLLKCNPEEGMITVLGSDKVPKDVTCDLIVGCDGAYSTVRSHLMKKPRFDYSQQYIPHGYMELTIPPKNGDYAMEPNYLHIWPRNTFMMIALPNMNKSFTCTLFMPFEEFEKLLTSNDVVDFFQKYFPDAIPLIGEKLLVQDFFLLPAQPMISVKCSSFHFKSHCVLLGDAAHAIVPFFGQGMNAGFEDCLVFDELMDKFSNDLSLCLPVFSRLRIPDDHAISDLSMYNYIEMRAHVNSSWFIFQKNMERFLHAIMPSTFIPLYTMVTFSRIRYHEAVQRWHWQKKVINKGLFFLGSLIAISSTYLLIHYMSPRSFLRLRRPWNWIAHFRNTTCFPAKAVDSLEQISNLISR
Chain of Tryptophan 2,3-dioxygenase (Homo sapiens) (P48775 whole entry, looked up): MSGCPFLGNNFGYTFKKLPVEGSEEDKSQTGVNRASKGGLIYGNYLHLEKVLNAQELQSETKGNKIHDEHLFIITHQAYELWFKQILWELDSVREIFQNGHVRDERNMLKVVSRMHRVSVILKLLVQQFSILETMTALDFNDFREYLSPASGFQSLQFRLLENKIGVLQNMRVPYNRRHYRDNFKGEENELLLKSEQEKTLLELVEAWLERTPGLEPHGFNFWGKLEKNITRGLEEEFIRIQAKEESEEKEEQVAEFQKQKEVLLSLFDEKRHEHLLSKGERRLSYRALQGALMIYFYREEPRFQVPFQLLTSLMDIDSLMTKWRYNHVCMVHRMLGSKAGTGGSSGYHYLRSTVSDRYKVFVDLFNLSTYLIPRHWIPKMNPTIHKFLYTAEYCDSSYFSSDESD
Chain of Kynurenine 3-monooxygenase (Rattus norvegicus, UniProt O88867) (O88867 whole entry): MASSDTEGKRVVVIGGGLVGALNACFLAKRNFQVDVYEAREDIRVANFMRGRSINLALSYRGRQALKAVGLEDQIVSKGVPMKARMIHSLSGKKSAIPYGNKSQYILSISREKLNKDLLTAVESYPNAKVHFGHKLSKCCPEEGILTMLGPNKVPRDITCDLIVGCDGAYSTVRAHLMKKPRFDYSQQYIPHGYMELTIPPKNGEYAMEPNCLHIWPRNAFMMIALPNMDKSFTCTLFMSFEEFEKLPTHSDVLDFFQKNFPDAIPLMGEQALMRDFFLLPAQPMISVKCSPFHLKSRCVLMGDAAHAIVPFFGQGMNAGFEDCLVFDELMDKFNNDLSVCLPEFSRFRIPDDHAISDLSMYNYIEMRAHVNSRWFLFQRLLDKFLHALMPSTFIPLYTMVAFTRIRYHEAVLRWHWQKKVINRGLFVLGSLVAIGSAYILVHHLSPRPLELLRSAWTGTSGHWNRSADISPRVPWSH

Q: With `C[C@@H](Oc1cc2onc(CCC(=O)O)c2cc1Cl)c1ccccn1` [GSK-065] as the molecule, how does the clearance [1] read?
A: 0.8 mL/min/kg

Q: What about the clearance [2] of the same molecule?
A: 0.93 mL/min/kg

Q: What about the “Cp(f)” value (Plasma [3]) of the same molecule?
A: 405 nM

Q: And the half-life [4]?
A: 348 min

Q: And the “Cp(f)” value (Plasma [5])?
A: 3 nM

Q: What about the fraction unbound [6] of the same molecule?
A: 0.022

Q: And the remaining at 12 h [7]?
A: 97.7%

Q: What about the “Cp(f)” value (Plasma [8]) of the same molecule?
A: 50 nM

Q: What about the half-life [9] of the same molecule?
A: > 41.7 days

Q: What about the Vd [10] of the same molecule?
A: 0.36 L/kg

Q: What about the Ki [11] of the same molecule?
A: 45 nM

Q: What about the Vd [12] of the same molecule?
A: 0.42 L/kg

Q: And the half-life [13]?
A: 396 min

Q: For `C[C@@H](Oc1cc2onc(CCC(=O)O)c2cc1Cl)c1ccccn1.NCCO`, which concentration at 5 h [14] is on record?
A: 600 µM

Q: What does the source list for `C[C@@H](Oc1cc2onc(CCC(=O)O)c2cc1Cl)c1ccccn1`?
A: Activity (Rattus norvegicus [15]): inactive; Activity (Rattus norvegicus [16]): Dose-dependent effect; Activity (Rattus norvegicus [17]): Active; Activity (Rattus norvegicus [18]): Active; T1/2 [19]: 10 h; Activity (Rattus norvegicus [20]): Active; inhibition (Rattus norvegicus [21]): Dose-dependent effect; Activity (Rattus norvegicus [22]): inactive; inhibition (Homo sapiens): inactive; inhibition [23]: inactive; Activity (Rattus norvegicus [24]): Active; inhibition (Rattus norvegicus [25]): Active; Activity (Rattus norvegicus [26]): Active; inhibition [27]: inactive; inhibition (Rattus norvegicus [28]): Active; inhibition [29]: inactive; Activity (Rattus norvegicus [30]): inactive; Activity (Rattus norvegicus [31]): Active; Activity (Rattus norvegicus [32]): Active; Activity (Rattus norvegicus [33]): Active; Activity (Rattus norvegicus [34]): Dose-dependent effect; Activity (Rattus norvegicus [35]): Active; inhibition [36]: inactive; inhibition (Rattus norvegicus [37]): Active
